Source: patent publication US8426370B2, “Diaryl hepatonoid-based compounds and use thereof” (priority 2008, dated 2013)
Like-named read-outs stand apart in the source and are kept apart here.

Tests used:
[1] = test system: avian influenza virus KBNP-0028 (KCTC 10866BP); format: cell-based, A/chicken/Korea/SNU0028/2000(H9N2)
[2] = test system: CEF (chicken embryo fibroblasts)

O=C(CCc1ccc(O)c(O)c1)C[C@H](CCc1ccc(O)c(O)c1)OC1OCC(O)C(O)C1OC(=O)/C=C/c1ccc(O)cc1 (stereo partly drawn) [12B-AJ-17A-1, (5S)-1,7-bis(3,4-dihydroxyphenyl)-3-heptanone-5-O-(2-coumaroyl)-β-D-xylopyranoside]
antiviral activity (in words) [1]: had antiviral activity
Number of wells wherein hemagglutination occurs (among 6 wells) ([1]; 12.5 μg/mL): 3
Number of wells wherein hemagglutination occurs (among 6 wells) ([1]; 25 μg/mL): 3
Number of wells wherein hemagglutination occurs (among 6 wells) ([1]; 50 μg/mL): 3
Number of wells wherein hemagglutination occurs (among 6 wells) ([1]; 100 μg/mL): 3
cytotoxicity (in words) [2]: no cytotoxicity
